Measured values from US10137130B2, “Methods of treatment of malignancies” (Celgene Corporation, priority 2016, dated 2018).

Experiments:
[1] = test system: 2-HG plasma levels; assay: Phase 1/2 study AG221-C-001: pharmacodynamic response (2-HG plasma levels); assay type: in vivo, human
Procedure: 2HG can be detected in a sample by the methods of PCT Publication No. WO 2011/050210 and US Publication No. US2012/0121515 hereby incorporated by reference in their entirety, or by analogous methods. In an exemplary method, 2HG can be detected in a sample by LC/MS. The sample is mixed 80:20 with methanol, and centrifuged at 3,000 rpm for 20 minutes at 4 degrees Celsius. The resulting supernatant can be collected and stored at −80 degrees Celsius prior to LC-MS/MS to assess 2-hydroxyglutarate levels. A variety of different liquid chromatography (LC) separation methods can be used. Each method can be coupled by negative electrospray ionization (ESI, −3.0 kV) to triple-quadrupole mass spectrometers operating in multiple reaction monitoring (MRM) mode, with MS parameters optimized on infused metabolite standard solutions. Metabolites can be separated by reversed phase chromatography using 10 mM tributyl-amine as an ion pairing agent in the aqueous mobile phase, according to a variant of a previously reported method (Luo et al. J Chromatogr A 1147, 153-64, 2007). One method allows resolution of TCA metabolites: t=0, 50% B; t=5, 95% B; t=7, 95% B; t=8, 0% B, where B refers to an organic mobile phase of 100% methanol. Another method is specific for 2-hydroxyglutarate, running a fast linear gradient from 50%-95% B (buffers as defined above) over 5 minutes. A Synergi Hydro-RP, 100 mm×2 mm, 2.1 μm particle size (Phenomonex) can be used as the column, as described above. Metabolites can be quantified by comparison of peak areas with pure metabolite standards at known concentration. Metabolite flux studies from ^13C-glutamine can be performed as described, e.g., in Munger et al. Nat Biotechnol 26, 1179-86, 2008. […]
Subjects in the dose escalation phase and Part 1 Expansion also will undergo PK/PD assessments over a 10-hour period on C1D15, C2D1, and C4D1. […] Available bone marrow biopsy samples also will be assessed for 2-HG and α-KG levels. […]

[2] = test system: rrAML with an IDH2 mutation; assay: FLT3 mutation status and Compound 1 response in rrAML patients of the Example 1 trial (FoundationOne Heme panel, LabPMM PCR); assay type: in vivo, human
Procedure: A subset of the clinical samples from the trial described in Example 1 were analyzed at screening. Sample types included bone marrow, peripheral blood and mononuclear cells isolated from bone marrow or peripheral blood. DNAs were extracted from these samples and sequenced at Foundation Medicine (Heme Panel, see http://foundationone.com/learn.php) using next generation sequencing technique.
Overall response rate (ORR), the primary efficacy endpoint, is defined as the rate of responders including complete remission (CR), CR with incomplete platelet recovery (CRp), marrow CR (mCR) (morphologic leukemia-free state [MLFS] for subjects with AML), CR with incomplete hematologic recovery (CRi), and partial remission (PR). Other measures of clinical activity including complete remission rate (CRR), duration of remission/response, event-free survival, overall survival, and time to remission/response will be summarized.
FoundationOne Heme panel analysis was performed on 100 screening samples from rrAML patients in the trial described in Example 1. Sample types included peripheral blood and bone marrow.
Therefore, the lower frequency reported in the above study is likely due to lack of recruitment of patients with FLT3-ITD mutations.
Tables 8 provides a contingency table indicating lack of statistical significance for lower ORR observed in efficacy evaluable patients presenting with FLT3-ITD and Table 9 provides a contingency table indicating statistical significance of lower ORR seen in patients presenting with either FLT3-ITD or FLT3 point mutation (PM).

[3] = FLT3-ITD+ efficacy evaluable patients
[4] = FLT3-ITD+/PM+ patients (either FLT3-ITD or FLT3 point mutation)
[5] = FLT3-ITD− efficacy evaluable patients

CC(C)(O)CNc1nc(Nc2ccnc(C(F)(F)F)c2)nc(-c2cccc(C(F)(F)F)n2)n1 [COMPOUND 1, 2-methyl-1-[(4-[6-(trifluoromethyl)pyridin-2-yl]-6-{[2-(trifluoromethyl)pyridin-4-yl]amino}-1,3,5-triazin-2-yl)amino]propan-2-ol]
reduction in 2-HG plasma levels ([1]; by Day 1 of Cycle 2, subjects of AG221-C-001): sustained reduction | inhibition of 2-HG plasma levels ([1]; most subjects with R140Q mutation, all doses): up to 98% | exposure and inhibition of 2-HG in relation to dose ([1]; subjects with R172K mutation): Increasing dose is associated with higher exposure and inhibition of 2-HG | No Response (number of patients) [2, 3]: 3 | Response (number of patients) [2, 3]: 0 | ORR ([2]; FLT3-ITD+ patients): 0% | No Response (number of patients) [2, 4]: 9 | Response (number of patients) [2, 4]: 1 | ORR ([2]; FLT3-ITD+/PM+ patients (mFLT3)): 10.0% | No Response (number of patients) [2, 5]: 38 | Response (number of patients) [2, 5]: 33 | No Response (number of patients) ([2]; FLT3-ITD−/PM− patients): 42 | Response (number of patients) ([2]; FLT3-ITD−/PM− patients): 40 | Odds ratio (response, mFLT3 vs FLT3-ITD−/PM−) ([2]; Fisher's Exact test, p = 0.039): 0.117 | Odds ratio (response, FLT3-ITD+ vs FLT3-ITD−) ([2]; Fisher's Exact test, p = 0.249): 0.164
